Source: publication PMC11587507, “The Importance of Stereochemistry in 5-HT7R Modulation—A Case Study of Hydantoin Derivatives” (ACS Chemical Neuroscience, 2024)
Like-named read-outs stand apart in the source and are kept apart here.

Legend:
[1] = target: T1, 5-HT1AR (Homo sapiens, UniProt P08908); test: Radioligand binding assay, [3H]-8-OH-DPAT displacement; conditions: mean ± SD from two independent measurements; read-out: Ki 5-HT1A
T1 sequence (P08908 1-422): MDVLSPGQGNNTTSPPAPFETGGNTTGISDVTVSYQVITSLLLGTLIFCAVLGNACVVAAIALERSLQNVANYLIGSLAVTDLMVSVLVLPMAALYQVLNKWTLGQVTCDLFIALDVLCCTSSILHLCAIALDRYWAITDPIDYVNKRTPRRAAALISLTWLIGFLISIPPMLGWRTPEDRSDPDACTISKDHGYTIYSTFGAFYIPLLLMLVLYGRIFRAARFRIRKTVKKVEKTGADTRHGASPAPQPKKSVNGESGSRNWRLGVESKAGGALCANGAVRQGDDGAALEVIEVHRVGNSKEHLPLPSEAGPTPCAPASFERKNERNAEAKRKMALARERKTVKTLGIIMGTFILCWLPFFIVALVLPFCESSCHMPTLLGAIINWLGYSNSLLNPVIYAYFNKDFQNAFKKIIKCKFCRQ
Procedure: (§1) Cell pellets were thawed and homogenized in 10 vol of assay buffer using an Ultra Turrax tissue homogenizer and centrifuged twice at 35 000 g for 15 min at 4 °C, with incubation for 15 min at 37 °C in between. The composition of the assay buffers was as follows: for 5-HT1AR: 50 mM Tris HCl, 0.1 mM EDTA, 4 mM MgCl2, 10 μM pargyline and 0.1% ascorbate; for 5-HT2AR: 50 mM Tris HCl, 0.1 mM EDTA, 4 mM MgCl2 and 0.1% ascorbate; for 5- HT7bR: 50 mM Tris HCl, 4 mM MgCl2, […] and 0.1% ascorbate; and for dopamine D2LR: 50 mM Tris HCl, 1 mM EDTA, 4 mM MgCl2, 120 mM NaCl, 5 mM KCl, 1.5 mM CaCl2 and 0.1% ascorbate. All assays were incubated in a total volume of […] in 96-well microtiter plates for 1 h at 37 °C, except 5-HT2AR which was incubated at 27 °C. The process of equilibration was terminated by rapid filtration through Unifilter plates with a 96-well cell harvester, and radioactivity retained on the filters was quantified on a Microbeta plate reader (PerkinElmer, USA). For displacement studies, the assay samples contained as radioligands (PerkinElmer, USA): 2.5 nM [^3H]-8-OH-DPAT (135.2 Ci/mmol) for 5-HT1AR; 1 nM [3H]-ketanserin (53.4 Ci/mmol) for 5- HT2AR; 0.8 nM [3H]-5- CT (39.2 Ci/mmol) for 5-HT7R or 2.5 nM [3H]-raclopride (72 Ci/mmol) for D2LR. Nonspecific binding was defined with […] of 5-HT in 5-HT7R binding experiments, whereas […] were used in 5-HT2AR and D2L assays, respectively. Each compound was tested in triplicate at 7 concentrations (10^–10–10^–4 M). The inhibition constants (Ki) were calculated using the Cheng–Prusoff equation.[48] Results were expressed as means of at least two separate experiments.

[2] = test system: immobility time; test: Forced swim test (FST, Porsolt's test) in mice; assay type: in vivo; conditions: 60 min before test
Procedure: (§2) The behavioral experiments were performed on male BalbC mice weighing 20–25 g, n = 333. The animals were purchased from the Animal House at the Faculty of Pharmacy, Jagiellonian University Medical College, Krakow, Poland. Mice were kept in groups of ten in Makrolon type 3 cages (dimensions 26.5 × 15 × 42 cm). The animals were kept in an environmentally controlled room (ambient temperature 22 ± 2 °C; relative humidity 50–60%; 12:12 light: dark cycle; and lights on at 8:00). They were allowed to acclimatize with the environment enriched by nesting material, tooth grinding material, houses, and toys for 1 week before commencement of the experiments. During acclimatization, mice were accustomed to the presence of female experimenters and their appropriate manner of animals’ restraint, i.e., cupping each separate mouse in open hands, according to the 3Rs recommendations (handling).[50],[51] Standard laboratory food (Sniff M-Z) and filtered water were freely available. All the experiments were conducted in the light phase between 9 AM and 2 PM. Experimental groups consisted of 6–10 randomly selected animals, depending on the experiment, and each animal was used only once. The experiments were performed by an observer who was unaware of the treatment administered. All the experimental procedures with mice were carried out under EU Directive 2010/63/EU and were approved by the Local Ethics Commission for Animal Experiments of Jagiellonian University in Krakow (Approval nos.:297/2019).
(§3) Compounds were injected once intraperitoneally (i.p.) 60 min before tests, at a volume of 10 mL/kg. Control animals received a vehicle injection according to the same schedule.
The FST experiment was carried out according to the method of Porsolt et al.[52] The total duration of immobility was recorded during the last 4 min of this 6 min period. The reduction of immobility time compared to the control was a measure of antidepressant properties of the tested compound. A mouse was regarded as immobile when it remained floating on water, making only small movements to keep its head above it.

[3] = test system: locomotor activity; test: Spontaneous locomotor activity in mice; assay type: in vivo
Procedure: as §2, §3
Locomotor activity was recorded with an Opto M3 multichannel activity monitor (Columbus Instruments, Columbus, USA). […] According to the 3Rs recommendations,[54] locomotor activity was assessed for the minimal active doses obtained in FST and/or FPT to ensure that detected antidepressant-/anxiolytic-like effects are not the result of increased motility of mice.

[4] = target: dopamine D2LR (Homo sapiens, UniProt P14416); test: Radioligand binding assay, [3H]-raclopride displacement; conditions: mean ± SD from two independent measurements; read-out: Ki D2
Procedure: as §1

[5] = target: T2, 5-HT7R (Homo sapiens, UniProt P34969); test: Radioligand binding assay, [3H]-5-CT displacement; conditions: mean ± SD from two independent measurements; read-out: Ki 5-HT7
Procedure: as §1

[6] = test system: punished crossings; test: Four-plate test (FPT) in mice; assay type: in vivo
Procedure: as §2, §3
The four-plate apparatus (Bioseb, Pinellas Park, USA) was used for tests. Following a 15 s habituation period, the animal’s motivation to explore a novel environment is suppressed by an electric foot shock (0.8 mA, 0.5 s) every time it moves from one plate to another during a 1 min test session. This action is referred to as a “punished crossing” and is followed by a 3 s shock interval, during which the animal can move across plates without receiving a shock.[53]

[7] = target: T2, 5-HT7R; parameters: method as in PMID 29439902, PMID 29425815, PMID 28886235, PMID 26900658; conditions: earlier results for the racemic hits; read-out: 5-HT7R Ki of reference hit compounds; cited from earlier work

T2 sequence (P34969 1-432): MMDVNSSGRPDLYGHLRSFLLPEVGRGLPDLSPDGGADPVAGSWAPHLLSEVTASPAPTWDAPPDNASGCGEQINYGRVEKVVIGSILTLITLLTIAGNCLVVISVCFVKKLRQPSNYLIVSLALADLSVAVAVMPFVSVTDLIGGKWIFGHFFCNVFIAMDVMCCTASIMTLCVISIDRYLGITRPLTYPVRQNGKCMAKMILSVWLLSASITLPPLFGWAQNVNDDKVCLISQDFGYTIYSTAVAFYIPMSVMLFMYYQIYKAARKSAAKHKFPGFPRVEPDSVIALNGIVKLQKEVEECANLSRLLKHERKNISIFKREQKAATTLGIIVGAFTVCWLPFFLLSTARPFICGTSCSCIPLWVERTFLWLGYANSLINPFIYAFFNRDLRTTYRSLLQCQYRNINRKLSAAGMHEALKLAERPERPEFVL
Chain of dopamine D2LR (P14416 whole entry): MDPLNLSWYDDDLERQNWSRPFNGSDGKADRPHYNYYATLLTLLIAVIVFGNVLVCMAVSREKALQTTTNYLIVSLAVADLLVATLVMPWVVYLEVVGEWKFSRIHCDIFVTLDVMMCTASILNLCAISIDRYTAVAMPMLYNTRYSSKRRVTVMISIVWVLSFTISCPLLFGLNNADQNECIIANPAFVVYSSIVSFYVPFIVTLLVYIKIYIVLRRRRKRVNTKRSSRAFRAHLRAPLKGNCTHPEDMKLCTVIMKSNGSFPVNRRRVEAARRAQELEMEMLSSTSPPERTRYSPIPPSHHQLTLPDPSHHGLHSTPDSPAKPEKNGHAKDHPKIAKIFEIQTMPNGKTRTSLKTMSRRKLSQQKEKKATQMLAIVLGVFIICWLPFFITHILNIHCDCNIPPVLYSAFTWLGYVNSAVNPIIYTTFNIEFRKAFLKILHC

CC1(c2ccc(F)cc2)NC(=O)N(CC(O)CN2CCN(C(c3ccccc3)c3ccccc3)CC2)C1=O (centres unmarked) [Compound 2]
Ki [1]: 5.57 ± 1.41 µM
decrease of immobility time vs vehicle ([2]; 0.312 mg/kg i.p.): 25%
decrease of immobility time vs vehicle ([2]; 0.63 mg/kg i.p.): about 40%
decrease of immobility time vs vehicle ([2]; 1.25 mg/kg i.p.): about 40%
decrease of immobility time vs vehicle ([2]; 2.5 mg/kg i.p.): about 40%
decrease of immobility time vs vehicle ([2]; 5 mg/kg i.p.): 26%
locomotor activity number of crossings ± SEM during 3–6 min ([3]; 0.312 mg/kg i.p.): 108.00 ± 42.04; NS
locomotor activity number of crossings ± SEM during 1 min ([3]; 0.312 mg/kg i.p.): 9.75 ± 5.45; NS
locomotor activity number of crossings ± SEM during 60 min ([3]; 0.312 mg/kg i.p.): 702.75 ± 122.53; NS
locomotor activity number of crossings ± SEM during 3–6 min ([3]; 2.5 mg/kg i.p.): 211.50 ± 29.38; NS
locomotor activity number of crossings ± SEM during 1 min ([3]; 2.5 mg/kg i.p.): 16.50 ± 6.12; NS
locomotor activity number of crossings ± SEM during 60 min ([3]; 2.5 mg/kg i.p.): 2482.75 ± 587.23; NS
Ki [4]: 0.261 ± 0.038 µM
Ki [5]: 0.079 ± 0.006 µM
increase of number of punished crossings ([6]; 2.5 mg/kg i.p.): 62%
increase of number of punished crossings vs vehicle ([6]; i.p., active doses): about 60%
Ki [7]: < 0.1 µM
